Measurements reported in patent US11091501B2, “Heterocyclic compounds as RSV inhibitors” (Enanta Pharmaceuticals, Inc., priority 2017, dated 2021).

tested on: Human RSV-A (“Long” strain); assay: RSV in vitro cytoprotection assay (CPE, ATPlite) in HEp-2 cells; format: cell-based; settings: human respiratory syncytial virus, 96 h; HEp-2 cells, 4-day incubation, ATPlite readout; read-out: Human RSV-A (“Long” strain) EC50
From the text: RSV is a single stranded negative sense RNA virus that causes respiratory tract infections which can be dangerous to infants, the elderly, and immunosuppressed individuals. Currently there is no vaccine, and therapeutic options are both costly and of limited effectiveness. These approved treatments are Ribavirin, and Palivizumab/Synagis (a monoclonal antibody). RSV has two genotypes, A and B, which differ primarily in the structure of the virus' surface “G” attachment protein. Our current primary screen focuses on RSV-A and uses an in vitro cytoprotection assay where compounds are added in 2-fold dilutions to cells which are then subjected to fully replicative viral particles. Cell viability is measured several days later along with separate measurements of compound cytotoxicity. This report focuses on the results of our most recent screening of compounds.
HEp-2 cells, (originally derived from tumors grown in irradiated-cortisonised weanling rats that had been injected with epidermoid carcinoma tissue from a person's larynx, but later found to be indistinguishable from HeLa cells by PCR DNA analysis), were used for the culturing of genotype A, “Long” strain RSV. Flasks were inoculated with RSV and viral stocks were collected once cytopathic effect (CPE) was greater than 90%. Viral stocks in 25% sucrose media were snap frozen using liquid nitrogen to increase viral stability. Viral stock titers were quantified by tissue culture infectious dose 50% (TCID50) using 8,000 cells per well and 3-fold viral dilutions across a 96-well plate, cultured for 4 days.
Following extensive parameter testing, the final assay is run as follows: HEp-2 cells are seeded into the inner 60 wells of a 96-well plate at 8,000 cells per well in a volume of 50 μL using Growth Media (DMEM without phenol red, 1% L-Glut, 1% Penn/Strep, 1% nonessential amino acids, 10% FBS). 2-Fold serial dilutions of control and test compounds are added to the wells in duplicate in a total volume of 25 μL. Viral stock is then added to the wells in a volume of […] the total volume of each well to 100 μL. Each 96-well plate has a control column of 6 wells with cells and virus but no compound (negative control, max CPE), a column with cells but no compound or virus (positive control, minimum CPE), and a column with no cells or virus or compound (background plate/reagent control). The control wells with cells but no virus are given an additional 25 uL of growth media containing an equal quantity of sucrose as those wells receiving the viral stock in order to keep consistent in media and volume conditions. The outer wells of the plate are filled with 125 μL of growth media to act as a thermal and evaporative moat around the test wells. Following a 4-day incubation period, the plates are read using ATPlite (50 uL added per well), which quantifies the amount of ATP (a measure of cell health) present in each well. Assay plates are read using the Envision luminometer. In parallel, cytotoxicity is examined on an additional 96-well plate treated in an identical manner, but substituting the 25 μL of viral stock for 25 μL of growth media. […] EC50 ranges are as follows: A<0.01 μM; B 0.01-0.05 μM; C>0.05 μM.

Compared with `O=C(Nc1ccc(C(=O)N2CCc3c(sc(C(=O)Nc4c(Cl)cccc4Cl)c3F)-c3ccccc32)cc1)c1cccnc1N1CC2(CCOCC2)C1` [Example 90], `Cc1cccc(F)c1NC(=O)c1sc2c(c1F)CCN(C(=O)c1ccc(NC(=O)c3cccnc3N3CC4(CCOCC4)C3)cc1)c1ccccc1-2` [Example 91] is lower in EC50: 10 to 50 nM for the first, < 10 nM for the second.

First: O=C(Nc1ccc(C(=O)N2CCc3c(sc(-c4nc5ccccc5[nH]4)c3F)-c3ccccc32)cc1)c1cccnc1N1CC2(CCOCC2)C1 [Example 92]
Second: O=C(Nc1ccc(C(=O)N2CCc3nc(-c4nc5ccccc5[nH]4)sc3-c3ccccc32)cc1)c1cccnc1N1CC2(CCOCC2)C1 [Example 107]
The EC50 of the first is lower: < 10 nM for the first, 10 to 50 nM for the second.

`Cc1cnc(N2CC3(CCOCC3)C2)c(C(=O)Nc2ccc(C(=O)N3CCc4c(sc(C(=O)Nc5c(F)cccc5F)c4F)-c4ccccc43)cc2)c1` [Example 93] and `Cc1cnc(N2CC3(CCOCC3)C2)c(C(=O)Nc2ccc(C(=O)N3CCc4c(sc(C(=O)Nc5c(C)cccc5F)c4F)-c4ccccc43)cc2)c1` [Example 95] cannot be ordered by EC50: < 10 nM for the first, < 10 nM for the second.

First: Cc1cnc(N2CC3(CCOCC3)C2)c(C(=O)Nc2ccc(C(=O)N3CCc4c(sc(C(=O)Nc5c(F)cc(F)cc5F)c4F)-c4ccccc43)cc2)c1 [Example 94]
Second: O=C(Nc1c(F)cc(F)cc1F)c1nc2c(s1)-c1ccccc1N(C(=O)c1ccc(NC(=O)c3cccnc3N3CC4(CCOCC4)C3)cc1)CC2 [Example 105]
The EC50 of the first is lower: < 10 nM for the first, 10 to 50 nM for the second. The first is the more potent here.

`O=C(Nc1c(F)cccc1F)c1cc2c(o1)-c1ccc(F)cc1N(C(=O)c1ccc(NC(=O)c3cccnc3N3CC4(CCOCC4)C3)cc1)CC2` [Example 99] and `O=C(Nc1c(F)cc(F)cc1F)c1cc2c(o1)-c1ccc(F)cc1N(C(=O)c1ccc(NC(=O)c3cccnc3N3CC4(CCOCC4)C3)cc1)CC2` [Example 100] cannot be ordered by EC50: < 10 nM for the first, < 10 nM for the second.

Compared with `O=C(Nc1c(F)cccc1F)c1nc2c(s1)-c1ccccc1N(C(=O)c1ccc(NC(=O)c3cccnc3N3CC4(CCOCC4)C3)cc1)CC2` [Example 104], `O=C(Nc1c(F)cccc1F)c1nc2c(o1)-c1ccccc1N(C(=O)c1ccc(NC(=O)c3cccnc3N3CC4(CCOCC4)C3)cc1)CC2` [Example 108] is higher in EC50: < 10 nM for the first, 10 to 50 nM for the second. The first is the more potent here.

First: O=C(Nc1c(F)cc(F)cc1Cl)c1nc2c(s1)-c1ccccc1N(C(=O)c1ccc(NC(=O)c3cccnc3N3CC4(CCOCC4)C3)cc1)CC2 [Example 106]
Second: Cc1ccc(C(=O)Nc2ccc(C(=O)N3CCc4cc(C(=O)Nc5ncccc5F)sc4-c4ccc(F)cc43)cc2)c(N2CC3(CCOCC3)C2)n1 [Example 115]
The EC50 of the first is higher: 10 to 50 nM for the first, < 10 nM for the second. The second is the more potent here.

Compared with `O=C(Nc1ccc(C(=O)N2CCc3nc(-c4nc5ccccc5[nH]4)oc3-c3ccccc32)cc1)c1cccnc1N1CC2(CCOCC2)C1` [Example 109], `Cc1ccc(C(=O)Nc2ccc(C(=O)N3CCc4cc(C(=O)Nc5ccccc5F)sc4-c4ccc(F)cc43)cc2)c(N2CC3(CCOCC3)C2)n1` [Example 114] is lower in EC50: 10 to 50 nM for the first, < 10 nM for the second. The second is the more potent here.

`Cc1ccc(C(=O)Nc2ccc(C(=O)N3CCc4cc(C(=O)Nc5c(F)cccc5F)sc4-c4ccc(F)cc43)cc2)c(N2CC3(CCOCC3)C2)n1` [Example 110] and `Cc1ccc(C(=O)Nc2ccc(C(=O)N3CCc4cc(C(=O)Nc5c(C)cccc5F)sc4-c4ccc(F)cc43)cc2)c(N2CC3(CCOCC3)C2)n1` [Example 112] cannot be ordered by EC50: < 10 nM for the first, < 10 nM for the second.

`Cc1ccc(C(=O)Nc2ccc(C(=O)N3CCc4cc(C(=O)Nc5c(F)cc(F)cc5F)sc4-c4ccc(F)cc43)cc2)c(N2CC3(CCOCC3)C2)n1` [Example 111] and `Cc1ccc(C(=O)Nc2ccc(C(=O)N3CCc4cc(C(=O)Nc5c(F)cccc5C(F)(F)F)sc4-c4ccc(F)cc43)cc2)c(N2CC3(CCOCC3)C2)n1` [Example 113] cannot be ordered by EC50: < 10 nM for the first, < 10 nM for the second.

`Cc1ccc(C(=O)Nc2ccc(C(=O)N3CCc4cc(C(=O)Nc5c(C)cccc5C)sc4-c4ccc(F)cc43)cc2)c(N2CC3(CCOCC3)C2)n1` [Example 116] and `Cc1cnc(N2CC3(CCOCC3)C2)c(C(=O)Nc2ccc(C(=O)N3CCc4cc(C(=O)Nc5nc(C)co5)sc4-c4ccc(F)cc43)cc2)c1` [Example 135] cannot be ordered by EC50: < 10 nM for the first, < 10 nM for the second.

`Cc1cnc(N2CC3(CCOCC3)C2)c(C(=O)Nc2ccc(C(=O)N3CCc4cc(C(=O)Nc5c(F)cncc5F)sc4-c4ccc(F)cc43)cc2)c1` [Example 117] and `Cc1cnc(N2CC3(CCOCC3)C2)c(C(=O)Nc2ccc(C(=O)N3CCc4cc(C(=O)Nc5c(Cl)cncc5Cl)sc4-c4ccc(F)cc43)cc2)c1` [Example 131] cannot be ordered by EC50: < 10 nM for the first, < 10 nM for the second.

`Cc1cnc(N2CC3(CCOCC3)C2)c(C(=O)Nc2ccc(C(=O)N3CCc4cc(C(=O)Nc5ncccc5F)sc4-c4ccc(F)cc43)cc2)c1` [Example 118] and `Cc1cnc(N2CC3(CCOCC3)C2)c(C(=O)Nc2ccc(C(=O)N3CCc4cc(C(=O)Nc5ncccc5Cl)sc4-c4ccc(F)cc43)cc2)c1` [Example 120] cannot be ordered by EC50: < 10 nM for the first, < 10 nM for the second.

`Cc1cnc(N2CC3(CCOCC3)C2)c(C(=O)Nc2ccc(C(=O)N3CCc4cc(C(=O)Nc5ncccc5C(F)(F)F)sc4-c4ccc(F)cc43)cc2)c1` [Example 119] and `O=C(Nc1ncccc1C(F)(F)F)c1cc2c(s1)-c1ccc(F)cc1N(C(=O)c1ccc(NC(=O)c3cc4c(nc3N3CC5(CCOCC5)C3)CCC4)cc1)CC2` [Example 139] cannot be ordered by EC50: < 10 nM for the first, < 10 nM for the second.

`Cc1cnc(N2CC3(CCOCC3)C2)c(C(=O)Nc2ccc(C(=O)N3CCc4cc(C(=O)NC5CC(C)(C)OC(C)(C)C5)sc4-c4ccc(F)cc43)cc2)c1` [Example 121] and `Cc1cnc(N2CC3(CCOCC3)C2)c(C(=O)Nc2ccc(C(=O)N3CCc4cc(C(=O)N[C@H]5CCOC5)sc4-c4ccc(F)cc43)cc2)c1` [Example 124] cannot be ordered by EC50: < 10 nM for the first, < 10 nM for the second.

Compared with `Cc1cnc(N2CC3(CCOCC3)C2)c(C(=O)Nc2ccc(C(=O)N3CCc4cc(C(=O)NC5CCS(=O)(=O)CC5)sc4-c4ccc(F)cc43)cc2)c1` [Example 122], `Cc1cnc(N2CC3(CCOCC3)C2)c(C(=O)Nc2ccc(C(=O)N3CCc4cc(C(=O)NC5CCOCC5)sc4-c4ccc(F)cc43)cc2)c1` [Example 130] is lower in EC50: > 50 nM for the first, < 10 nM for the second.

Compared with `Cc1cnc(N2CC3(CCOCC3)C2)c(C(=O)Nc2ccc(C(=O)N3CCc4cc(C(=O)NC5CC6CCC5O6)sc4-c4ccc(F)cc43)cc2)c1` (stereo not drawn) [Example 123], `Cc1cnc(N2CC3(CCOCC3)C2)c(C(=O)Nc2ccc(C(=O)N3CCc4cc(C(=O)NC5CCNC5)sc4-c4ccc(F)cc43)cc2)c1` (stereo not drawn) [Example 129] is higher in EC50: < 10 nM for the first, > 50 nM for the second.

First: Cc1cnc(N2CC3(CCOCC3)C2)c(C(=O)Nc2ccc(C(=O)N3CCc4cc(C(=O)Nc5ncco5)sc4-c4ccc(F)cc43)cc2)c1 [Example 125]
Second: Cc1cnc(N2CC3(CCOCC3)C2)c(C(=O)Nc2ccc(C(=O)N3CCc4cc(C(=O)Nc5ncc(C)o5)sc4-c4ccc(F)cc43)cc2)c1 [Example 134]
The EC50 of the first is higher: 10 to 50 nM for the first, < 10 nM for the second. The second is the more potent here.

First: Cc1cnc(N2CC3(CCOCC3)C2)c(C(=O)Nc2ccc(C(=O)N3CCc4cc(C(=O)Nc5cccnn5)sc4-c4ccc(F)cc43)cc2)c1 [Example 126]
Second: Cc1cnc(N2CC3(CCOCC3)C2)c(C(=O)Nc2ccc(C(=O)N3CCc4cc(C(=O)Nc5ccnnc5)sc4-c4ccc(F)cc43)cc2)c1 [Example 127]
The EC50 of the first is lower: < 10 nM for the first, 10 to 50 nM for the second.

First: Cc1cnc(N2CC3(CCOCC3)C2)c(C(=O)Nc2ccc(C(=O)N3CCc4cc(C(=O)Nc5ncns5)sc4-c4ccc(F)cc43)cc2)c1 [Example 128]
Second: Cc1cnc(N2CC3(CCOCC3)C2)c(C(=O)Nc2ccc(C(=O)N3CCc4cc(C(=O)Nc5nccs5)sc4-c4ccc(F)cc43)cc2)c1 [Example 132]
The EC50 of the first is higher: 10 to 50 nM for the first, < 10 nM for the second.

First: Cc1cnc(N2CC3(CCOCC3)C2)c(C(=O)Nc2ccc(C(=O)N3CCc4cc(C(=O)Nc5nnc(C)s5)sc4-c4ccc(F)cc43)cc2)c1 [Example 133]
Second: Cc1cnc(N2CC3(CCOCC3)C2)c(C(=O)Nc2ccc(C(=O)N3CCc4cc(-c5nnco5)sc4-c4ccc(F)cc43)cc2)c1 [Example 141]
The EC50 of the first is higher: 10 to 50 nM for the first, < 10 nM for the second. The second is the more potent here.

First: Cc1cc(C(=O)Nc2ccc(C(=O)N3CCc4cc(C(=O)Nc5c(F)cc(F)cc5Cl)sc4-c4ccc(F)cc43)cc2)c(N2CC3(CCOCC3)C2)nn1 [Example 136]
Second: O=C(Nc1c(F)cccc1Cl)c1cc2c(s1)-c1ccc(F)cc1N(C(=O)c1ccc(NC(=O)c3cc4c(nc3N3CC5(CCOCC5)C3)CCOC4)cc1)CC2 [Example 137]
The EC50 of the first is higher: 10 to 50 nM for the first, < 10 nM for the second.

For `O=C(Nc1ncccc1Cl)c1cc2c(s1)-c1ccc(F)cc1N(C(=O)c1ccc(NC(=O)c3cc4c(nc3N3CC5(CCOCC5)C3)CCC4)cc1)CC2` [Example 140], the EC50 was < 10 nM.
